Patent US10473645B2, “Methods for identifying a receptor for a ligand and uses thereof” (UNIVERSITE DE GENEVE, priority 2014, dated 2019)

How the values were obtained:
olfr109 = experiment: OR transcript level by RT-qPCR after in vivo odorant exposure; set-up: species or system mouse; key: The transcript downregulation of 21 out of the 26 olfactory receptor candidates obtained by RNAseq was confirmed by qPCR; false RNAseq positive candidates, namely OR candidates for which in fact mRNA was not downregulated following acetophenone exposure; conditions: 5% acetophenone exposure
Protocol: In vivo exposure to odorant: Starting 48 h before experiments, mice were habituated to pure DMSO on a cotton ball. 200 μl were pipetted directly onto the cotton and placed in the cage, replacing any cotton that was already in the cage for nest-making purposes.
On the day of the experiment, mice receiving odorants were transferred to a different room, where they were exposed to a cotton ball on which 200 μl of odorant diluted in pure DMSO were deposited. Exposures started in the morning between 8 and 10 am (that is two hours after lights were on) and mice were killed and dissected between 1 and 3 pm. […] If a number of different odorants were tested in the same experiment, a different overpressurized room would always be used for each odorant to avoid odor cross-contamination.
After odorant exposure, mice were killed by cervical dislocation and immediately decapitated. The main olfactory epithelia (MOE), were harvested in their entirety and transferred to a tube containing 600 μl of lysis buffer and β-mercaptoethanol (RNAeasy kit, Qiagen, following the manufacturer protocol) and a 0.5 cm diameter steel ball, and then put on ice. Samples were then homogenized using a FastPrep®-24 instrument (MP Biomedicals) at 6 m/s for 30 s and left on ice. RNA extraction was performed on all samples in parallel using the Qiagen RNeasy Mini® kit following the manufacturer's instructions. Two DNase treatments were performed on all samples: first using the Qiagen RNase-Free DNase Set® and then using the Life Technologies Ambion DNase I® kit. RNA samples were then aliquoted and stored at −80° C.
RNA concentrations were determined using an Amersham Ultrospec® 3100 Pro spectrophotometer, and RNA quality was evaluated with an Agilent Technologies 2100 Bioanalyzer®. Each reverse transcription was performed with 0.5 μg RNA using the Takara Primescript® kit, in a final volume of 10 μl. Primers for reverse transcription were equal mixtures of poly-T nucleotides and random hexamers. Negative controls (omitting the reverse transcriptase enzyme) were performed for each sample. 1/14th of the cDNA preparation was used for each triplicated qPCR reaction.
qPCR Ct values were analyzed using an in-house developed Microsoft Excel® macro file. Triplicate values were compared and outliers (values with a difference higher than 0.5 Ct to their nearest neighbor) were discarded. The number of conditions with an outlying value was always less than 10% of the total number of conditions. Ct values were converted to quantities relative to the maximum for each given gene. Selected reference genes were then analyzed for variance using the geNorm algorithm. All values were normalized with the olfactory tissue-specific genes Omp and Adcy3. β-Actin was used as a non-tissue-specific reference gene to control for differences in dissection between samples.
(§1) Mice (n=6) were exposed to 5% acetophenone or to a “neutral” control condition for 5 hours. An olfactory cDNA library corresponding to each animal was deep sequenced and the ratios of odorant receptor mRNA concentrations relative to controls were plotted (FIG. 3). […] Based on transcriptional downregulation levels observed by RNAseq following acetophenone exposure, a list of 26 candidate responsive ORs was determined (FIG. 3), that reached 74% decrease (Olfr145) or even over 80% (Olfr169) relative to controls. […] The transcript downregulation of 21 out of the 26 olfactory receptor candidates obtained by RNAseq was confirmed by qPCR.

Olfr1377 = experiment: OR transcript downregulation by RNAseq after in vivo exposure; set-up: species or system mouse; conditions: 5% odorant, 5 hours, reduction larger than 20% = downregulated
Protocol: (§2) Animals were exposed to 5% acetophenone for 5 hours before RNA extraction (as previously described). cDNA libraries were generated with the Truseq RNA and DNA sample preparation kits after selection of polyA-containing mRNAs. Adapters for RNAseq multiplexing were added to the cDNAs. The cDNA libraries were sequenced with a HiSeq®2500 Sequencing system. 100 bp reads were mapped using Bowtie2 with a 28 bp seed. The differential gene expression analyses were performed with DESeq2. Because of the high sequence similarity between OR gene paralogs, some reads are mapped to multiple OR genes. These reads were removed from the analysis.
as §1

Olfr160 [1] = experiment: as above; set-up: species or system mouse; conditions: 5% odorant, 5 hours, reduction larger than 20% = downregulated
Protocol: as §2, §1

Olfr169 = experiment: as above; set-up: species or system mouse; conditions: 5% odorant, 5 hours
Protocol: as §2, §1

Olfr983 = experiment: as above; set-up: species or system mouse; conditions: 5% odorant, 5 hours, reduction larger than 20% = downregulated
Protocol: as §2, §1

OSNs expressing olfr109 = experiment: pS6 immunolabeling with OR in situ hybridization after odorant exposure; format: in vivo, mouse; conditions: 5% acetophenone, 60 minutes
Protocol: (§3) In order to independently validate the identity of an acetophenone receptor obtained with the RNAseq approach, the potential colocalization following acetophenone exposure of a neuronal activity marker (the phosphorylated ribosomal protein S6 (pS6) (Knight et al., 2012, Cell, 151, 1126-1137) and specific olfactory receptors were evaluated. To this aim, in-situ hybridizations were performed on sections of olfactory tissue with probes targeting receptor mRNAs followed by immunolabeling of pS6. The probes used were directed against the transcripts of most of the ORs determined as responsive including Olfr983 transcripts (encoding a known acetophenone receptor), Olfr171 transcripts (encoding a known ethyl isobutyrate receptor), and Olfr145 transcripts, encoding a newly identified receptor by RNAseq. Before analysis, mice were exposed to either 5% acetophenone, 5% ethyl isobutyrate, or a negative control condition for 60 minutes. […] 66% (Olfr983) and 70% (Olfr145) of the neurons were positive for pS6 after acetophenone exposure, while only 11% of the neurons expressing Olfr171 were positive for pS6 after exposure to this compound.

OSNs expressing olfr143 = experiment: as above; format: in vivo, mouse; conditions: 5% acetophenone, 60 minutes
Protocol: as §3

OSNs expressing olfr229 = experiment: as above; format: in vivo, mouse; conditions: 5% acetophenone, 60 minutes
Protocol: as §3

OSNs expressing olfr30 = experiment: as above; format: in vivo, mouse; conditions: 5% acetophenone, 60 minutes
Protocol: as §3

OSNs expressing olfr556 = experiment: as above; format: in vivo, mouse; conditions: 5% acetophenone, 60 minutes
Protocol: as §3

OSNs expressing olfr745 = experiment: as above; format: in vivo, mouse; conditions: 5% acetophenone, 60 minutes
Protocol: as §3

OSNs expressing olfr901 = experiment: as above; format: in vivo, mouse; conditions: 5% acetophenone, 60 minutes
Protocol: as §3

OSNs expressing olfr922 = experiment: as above; format: in vivo, mouse; conditions: 5% acetophenone, 60 minutes
Protocol: as §3

[2] = system: neurons expressing Olfr145; experiment: as above; format: in vivo, mouse; conditions: 60 minutes
Protocol: as §3

[3] = system: neurons expressing Olfr983; experiment: as above; format: in vivo, mouse; conditions: 60 minutes
Protocol: as §3

Olfr160 [4] = conditions: dissociated neurons; previously shown; read-out: EC50 as agonist of Olfr160; cited from earlier work

Structure (SMILES): CC(=O)c1ccccc1 [acetophenone]
- olfr109 candidate OR (RNAseq) confirmed by qPCR (olfr109): y
- Olfr1377 transcript modulation (RNAseq) (Olfr1377): downregulated
- Olfr160 transcript modulation (RNAseq) (Olfr160 [1]): downregulated
- Olfr169 transcript decrease relative to controls (RNAseq) (Olfr169): over 80%
- Olfr983 transcript modulation (RNAseq) (Olfr983): downregulated
- olfr109 ps6 positive (OSNs expressing olfr109): y (neuronal activation (i.e. pS6 signal in a fraction of neuron exceeding 15% relative to controls))
- olfr143 ps6 positive (OSNs expressing olfr143): y (neuronal activation (i.e. pS6 signal in a fraction of neuron exceeding 15% relative to controls))
- olfr229 ps6 positive (OSNs expressing olfr229): y (neuronal activation (i.e. pS6 signal in a fraction of neuron exceeding 15% relative to controls))
- olfr30 ps6 positive (OSNs expressing olfr30): y (neuronal activation (i.e. pS6 signal in a fraction of neuron exceeding 15% relative to controls))
- olfr556 ps6 positive (OSNs expressing olfr556): y (neuronal activation (i.e. pS6 signal in a fraction of neuron exceeding 15% relative to controls))
- olfr745 ps6 positive (OSNs expressing olfr745): y (neuronal activation (i.e. pS6 signal in a fraction of neuron exceeding 15% relative to controls))
- olfr901 ps6 positive (OSNs expressing olfr901): y (neuronal activation (i.e. pS6 signal in a fraction of neuron exceeding 15% relative to controls))
- olfr922 ps6 positive (OSNs expressing olfr922): y (neuronal activation (i.e. pS6 signal in a fraction of neuron exceeding 15% relative to controls))
- olfr145 ps6 positive ([2]; 5% acetophenone): y (neuronal activation (i.e. pS6 signal in a fraction of neuron exceeding 15% relative to controls))
- fraction of Olfr145-expressing neurons positive for pS6 ([2]; 5% odorant, in vivo): 70%
- olfr983 ps6 positive ([3]; 5% acetophenone): y (neuronal activation (i.e. pS6 signal in a fraction of neuron exceeding 15% relative to controls))
- fraction of Olfr983-expressing neurons positive for pS6 ([3]; 5% odorant, in vivo): 66%
- EC50 (Olfr160 [4]): < 50 µM
